The source of these data is patent publication US20240009256A1, “USE OF PROBIOTIC BACTERIUM-DERIVED EXTRACELLULAR MICRO- AND/OR NANOPARTICLES FOR THE TREATMENT OF DISEASE” (University of Louisville Research Foundation, Inc., priority 2020, published 2024).

One data set has as its system AhR. Briefly: ALD mouse model with AhR inhibitor CH223191 co-administration. Format: in vivo. Here is the method: Animals and treatments. C57BL/6J mice (6-8 weeks of age) from Jackson Laboratory (Bar Harbor, Maine, United States of America) were maintained at 22° C. with a 12 hour light/dark cycle and initially had free access to a normal chow diet and tap water. Mice were then fed the Lieber DeCarli Diet containing 5% alcohol (w/v) (Alcohol-fed, AF) or isocaloric maltose dextrin (Pair-fed, PF). For the AF groups, mice were initially fed the control Lieber-DeCarli liquid diet (Bio-Serve, Flemington, New Jersey, United States of America) for 5 days to acclimate to the liquid diet. […] Mice in PF group were fed isocaloric maltose dextrin in substitution for alcohol in the liquid diet. On experimental Day 10, a bolus of EtOH (5 g/kg body weight) was given to AF mice by gavage 9 hours before harvesting, while mice in PF groups received a gavage of isocaloric maltose dextrin (10d+1b model). LDNPs were administered to mice in the last 3 days by daily gavage of 200 μL of LDNPs (50 μg protein content). AhR inhibitor, CH223191 (Sigma-Aldrich, St. Louis, Missouri, United States of America) was gavaged at […] in last three days. Control mice were gavaged with an equal volume of control vehicle (PBS).
Whether the beneficial effects of LDNPs in ALD were mediated by the intestinal AhR pathway was tested by administrating the AhR inhibitor CH223191 to alcohol-fed mice. […] Importantly, the suppressive effect on hepatic fat by LDNP treatment was blunted when CH223191 was co-administered.

The subject of data set [1] is lamina propria lymphocytes (LPLs). Briefly: AhR signaling in lamina propria lymphocytes. The conditions noted are these: AhR inhibitor 10 μM. The class given is cell-based, mouse.
The test system of a further data set is Caco-2 cells. Briefly: Tight junction, Cyp1a1 and Nrf2 expression in Caco-2 cells. Format: cell-based, human. Here is the method:
(§1) Real-time quantitative PCR Total mRNA was extracted from mouse liver and intestine tissues using Trizol reagent (Life Technologies, Carlsbad, California, United States of America) according to the manufacturer's instruction and reverse-transcribed using cDNA Supermix (QuantaBio, Beverly, Massachusetts, United States of America). 18S and Gapdh were used as internal controls. Real-time qPCR was performed on an ABI 7300 fast real-time PCR thermocycler, where SYBR green PCR Master Mix (Applied Biosystems, Foster City, California, United States of America) was used. The relative gene expression was determined by the ΔΔCT method.
Western Blotting. Protein was extracted from frozen intestine tissues. Western blotting was performed as described in (Shao et al. (2018) Intestinal HIF-1α deletion exacerbates alcoholic liver disease by inducing intestinal dysbiosis and barrier dysfunction. Journal of Hepatology 69:886-895). Antibodies used for western blotting for proteins ZO-1, Occludin, and Claudin-1 were from Cell Signaling (Danvers, Massachusetts, United States of America). Nrf-2, β-actin and Histone H3 antibodies were purchased from Abcam (Cambridge, Massachusetts, United States of America). For western blotting in Caco-2 cell derived NPs and LDNPs, CD 63 antibody from System Bioscience (Palo Alto, California, United States of America) was used.
Cell culture. Mouse macrophages RAW 264.7 and the human intestinal epithelial cells Caco-2 were maintained in DMEM-high glucose and EMEM-high glucose (Corning; 10-009CV) respectively. The medium was supplemented with 10% fetal bovine serum, 1X penicillin-streptomycin solution (100U/ml penicillin, and 100 μg/ml streptomycin; Sigma Aldrich) in a humidified atmosphere (5% CO2, 95% air, 37° C.). Peritoneal macrophages and bone marrow-derived macrophages (BMDM) were isolated from mice as described in (Ying et al. (2013) Investigation of Macrophage Polarization Using Bone Marrow Derived Macrophages. Journal of Visualized Experiments 76:50323.). Isolated BMDM were then cultured in modified DMEM medium with macrophage colony-stimulating factor (M-CSF), which is a cytokine that directs cell differentiation. Cells were utilized for experimentation at 70-80% confluence. RAW264.7, peritoneal macrophages (PMs) and bone marrow-derived macrophages (BMDMs) were pretreated with LDNPs (0.2 μg/ml for 20 hours) and then treated with E. coli-derived lipopolysaccharides (LPS; O55:B5; Sigma) at 100 ng/mL concentration for 4 hours. Caco-2 cells at 70-80% confluence were treated with LDNPs (0.2 μg/ml), I3A (0.1 mM), the AhR inhibitor, CH-223191 (10 μM) or Nrf2 inhibitor, ML385 (5 μM) for 24 hours. Lamina propria lymphocytes (LPLs) were treated with LDNPs (0.2 μg/ml), I3A (0.1 mM) or the AhR inhibitor, CH223191 (10 μM) for 24 hours.
Measurement of Cvp1A1 enzyme activity in vitro. Caco-2 cells (50,000 cells/well) were plated in a 48-well plate. Cells were then treated with LDNPs (0.2 μg/ml) or Indole-3-aldehyde (I3A, 0.1 mM) for 24 hours. After treatment, cells were washed to remove any residual LDNPs or I3A, then the wells were replenished with fresh medium containing Cyp1A1 substrate as per the protocol provided with a P450-GLO™ CYP1A1 Assay System brand kit (Promega Corporation, Madison, Wisconsin, United States of America) for 3 hours. After incubation, 25 μl of culture medium was removed from each well and transferred to a 96-well white opaque plate and 25 μl of luciferin detection reagent was added to initiate the luminescence reaction and plate was incubated at room temperature for 20 minutes. After incubation, luminescence was recorded using a luminometer. The data were reported as foldchange over vehicle treatment.

A further data set concerns the target T1, EGFR (Mus musculus, UniProt Q01279).
T1 construct: endogenous in cells; host or cells: Raw264.7
Briefly: LDNPs-mediated EGFR activation in LPS-treated Raw264.7 cells with AG1478. Format: cell-based. The following applies: AG1478 150 nM. The protocol:
as §1
Raw264.7 cells were pretreated with LDNPs (0.2 μg/ml) or the EGFR inhibitor AG1478 (150 nM) for 20 hours and then treated with LPS for 4 hours to induce inflammation response as depicted in the top panel of the FIG. 13A. The bottom panel of FIG. 13A is a representative western blot of phosphorylated EGFR (P-EGFR Tyr 1068), Total-EGFR, PI3K, phosphorylated Akt (P-Akt), total-Akt, phosphorylated NF-κB (P-NF-κB), and β-actin showing that expression of several of these proteins were modulated by LDNP treatment.

The mark [2] stands for this setting: alcohol-fed, CH223191 co-administered.
[3] abbreviates: alcohol-fed, co-fed with CH223191.
[4] abbreviates: Caco-2, LDNPs 0.2 μg/ml, I3A 0.1 mM, 24 hours.

T1 sequence (Q01279 25-1210): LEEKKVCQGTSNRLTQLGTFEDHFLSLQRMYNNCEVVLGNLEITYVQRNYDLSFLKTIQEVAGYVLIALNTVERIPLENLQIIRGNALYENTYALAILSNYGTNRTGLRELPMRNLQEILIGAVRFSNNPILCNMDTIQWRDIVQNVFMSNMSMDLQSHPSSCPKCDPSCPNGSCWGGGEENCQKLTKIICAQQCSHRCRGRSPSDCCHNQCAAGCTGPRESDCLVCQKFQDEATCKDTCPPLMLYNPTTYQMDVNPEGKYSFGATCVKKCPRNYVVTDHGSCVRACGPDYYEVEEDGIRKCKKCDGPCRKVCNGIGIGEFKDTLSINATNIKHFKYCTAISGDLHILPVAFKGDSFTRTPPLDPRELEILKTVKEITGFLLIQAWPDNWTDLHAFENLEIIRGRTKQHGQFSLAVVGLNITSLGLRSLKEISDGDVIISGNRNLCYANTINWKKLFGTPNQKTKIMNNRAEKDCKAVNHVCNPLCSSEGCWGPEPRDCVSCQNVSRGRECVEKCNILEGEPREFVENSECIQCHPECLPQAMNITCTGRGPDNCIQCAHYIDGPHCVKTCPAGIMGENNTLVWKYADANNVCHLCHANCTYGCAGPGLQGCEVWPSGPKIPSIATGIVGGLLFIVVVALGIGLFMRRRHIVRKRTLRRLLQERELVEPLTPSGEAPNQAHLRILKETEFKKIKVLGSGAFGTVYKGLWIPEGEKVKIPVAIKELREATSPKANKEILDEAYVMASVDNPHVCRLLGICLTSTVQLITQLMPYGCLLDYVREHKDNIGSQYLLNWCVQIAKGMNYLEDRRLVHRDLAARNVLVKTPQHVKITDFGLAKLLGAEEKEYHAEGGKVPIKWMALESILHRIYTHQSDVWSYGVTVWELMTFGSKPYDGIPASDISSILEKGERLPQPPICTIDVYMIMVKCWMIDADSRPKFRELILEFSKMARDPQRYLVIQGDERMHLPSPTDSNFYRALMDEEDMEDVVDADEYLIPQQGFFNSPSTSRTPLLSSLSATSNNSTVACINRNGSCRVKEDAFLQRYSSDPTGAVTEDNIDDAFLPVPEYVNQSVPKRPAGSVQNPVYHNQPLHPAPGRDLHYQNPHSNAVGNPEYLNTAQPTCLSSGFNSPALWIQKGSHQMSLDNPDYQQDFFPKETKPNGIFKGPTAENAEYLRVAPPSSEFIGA

On to `Cc1ccccc1N=Nc1ccc(NC(=O)c2ccnn2C)c(C)c1` [CH223191], for which, in the data set on AhR (AF mice, agent alone), the “ileum Nqo1 mRNA expression” value is “reduced” and the “ileum Nrf2 mRNA expression” value was “reduced”. For the same compound, in the data set with AhR (setting [2]), the “LDNP-induced increase of IL-22 protein” value is “completely inhibited”, the “LDNP-induced increase of Il22 mRNA” value is “completely inhibited”, the “suppressive effect of LDNP treatment on hepatic fat” value is on record as “blunted” and the “upregulation of Reg3g by LDNPs” value is reported as “blocked”. In addition, the “ileum Cyp1a1 mRNA expression” value in the data set on AhR (alcohol-fed, LDNPs gavaged with the inhibitor) is “no change”. Also, in the data set with AhR (alcohol-fed, agent alone), the IL-22 protein expression result is on record as “reduced”, the hepatic bacteria load result was “significantly increased”, the hepatic fat accumulation entry is listed as “significantly increased” and the “ileum Cyp1a1 mRNA expression” value is listed as “reduced”. In the data set on AhR (alcohol-fed, agent alone), the “ileum Il22 mRNA expression” value is listed as “reduced”, the “ileum Reg3g mRNA expression” value is “reduced”, the “serum ALT” value is “slightly increased” and the “serum AST” value is on record as “slightly increased”. Further, in the data set on AhR (setting [3]), the “effects of LDNPs on serum ALT” value is on record as “blocked” and the “effects of LDNPs on serum AST” value is “blocked”. The “effect of LDNPs on hepatic bacteria load” value in the data set on AhR (alcohol-fed, inhibitor co-administered) is on record as “blocked”. Moreover, in data set [1], the “LDNPs-induced Cyp1a1 mRNA expression” value is recorded as “completely inhibited”, the “LDNPs-induced Il22 mRNA expression” value is on record as “completely inhibited” and the “LDNPs-induced upregulation of IL-22 protein” value is on record as “completely inhibited”. Moreover, in data set [1] (listed as CH229131), the “LDNPs-induced Cyp1a1 mRNA expression” value is “blocked” and the “LDNPs-induced Il22 mRNA expression” value is “blocked”. Besides, in the data set on Caco-2 cells, the “I3A-induced Cyp1a1 activity” value was “blocked”, the “I3A-induced Cyp1a1 mRNA expression” value is reported as “blocked”, the “LDNP-induced Cyp1a1 activity” value is listed as “blocked” and the “LDNP-induced Cyp1a1 mRNA expression” value is given as “blocked”. Besides, in the data set on Caco-2 cells, the “LDNP-induced Nrf2 mRNA expression” value is “blocked” and the “LDNP-induced Nrf2 protein expression” value is on record as “blocked”.
Turning to `Cc1ccccc1C(=O)N1CCc2cc(-c3nc(NC(=O)Cc4ccc5c(c4)OCO5)sc3C)ccc21` [ML385], in the data set on Caco-2 cells, the “LDNP-induced Cyp1a1 activity” value was “not”, the “LDNP-induced Cyp1a1 mRNA expression” value is on record as “blocked”, the “LDNP-induced Nrf2 mRNA expression” value was “completely inhibited” and the “LDNP-induced Nrf2 protein expression” value was “completely inhibited”.
Regarding `COc1cc2ncnc(Nc3cccc(Cl)c3)c2cc1OC` [AG1478], on EGFR, the “LDNP-mediated reduction of IL-1β mRNA” value is listed as “inhibited” and the “LDNP-mediated reduction of TNF-α mRNA” value is listed as “inhibited”.
For the compound `O=Cc1c[nH]c2ccccc12` [I3A, indole-3-aldehyde], in the data set on Caco-2 cells (Caco-2, LDNPs 0.2 μg/ml, I3A 0.1 mM), the “protein expression of tight junction proteins” value is reported as “increased”. Moreover, in the data set with Caco-2 cells (setting [4]), the Cyp1a1 activity result is on record as “markedly increased” and the “Cyp1a1 mRNA expression” value is given as “markedly increased”.
